The record followed here is US11040949B2, “Compounds affecting pigment production and methods for treatment of bacterial diseases” (Versitech Limited, priority 2017, dated 2021).

In the assay the test system is S. aureus USA300. In words: In vitro staphyloxanthin production inhibition by NP-16 analogues. In kind it is cell-based, Staphylococcus aureus. Particulars: S. aureus USA300, methanol extract OD 450 nm, 300 nM to 700 nM. Here is the method: Evaluation of NP-16 analogues in Staphyloxanthin production
The in vitro pigment inhibition studies were performed by S. aureus USA300 cultured in BHI with or without the presence of inhibitor compounds at 37° C. and 250 rpm for 36-48 hours. The bacteria were washed twice with PBS prior to the staphyloxanthin purification with methanol. The OD of the extracts were monitor at 450 nm using DTX880 multi-plate reader spectrophotometer (Beckman). The concentration range tested for the compounds were between 300 nM to 700 nM, and control groups were added with equal volume of DMSO.
The cytotoxicity of NP-16 and some of its analogues was tested against Raw 264.7 cells, and the cell tolerance of each compounds were documented in Table 3. Along with the in vitro staphyloxanthin production of the NP-16 analogues were being tested, the compounds can exert staphyloxanthin production inhibition. The staphyloxanthin from the overnight-cultured bacteria were extracted with methanol and quantified in via spectrophotometry. The results were presented in relative ratio to NP-16 in both the inhibition ratio as well as the TC50 (concentration for decreasing cell viability by 50%) in Table 3 (sample names correspond to those listed in Table 1).

With `O=C(/C=C/c1ccccc1)Nc1ccc(S(=O)(=O)N2CCCCC2)cc1` [NP16-XL-010, 3-phenyl-N-[4-(1-piperidine-1-sulfonyl)-phenyl]acrylamide], the “Relative ratio to NP16 based on inhibition ratio” value came to 1.43.

For `CC(=O)Oc1ccc(/C=C/C(=O)Nc2ccc(S(=O)(=O)N3CCCCC3)cc2)cc1` [NP16-XL-011, 3-(4-acetoxyl-phenyl)-N-[4-(1-piperidine-1-sulfonyl)phenyl]-acrylamide], the “Relative ratio to NP16 based on inhibition ratio” value turned out to be 1.31.

Consider `CC(=O)Oc1cccc(/C=C/C(=O)Nc2ccc(S(=O)(=O)N3CCCCC3)cc2)c1` [NP16-XL-012, 3-(5-acetoxyl-phenyl)-N-[4-(1-piperidine-1-sulfonyl)phenyl]-acrylamide], for which the “Relative ratio to NP16 based on inhibition ratio” value came to 1.16.

`CC(=O)Oc1ccccc1/C=C/C(=O)Nc1ccc(S(=O)(=O)N2CCCCC2)cc1` [NP16-XL-013, 3-(6-acetoxyl-phenyl)-N-[4-(1-piperidine-1-sulfonyl)phenyl]-acrylamide]: the “Relative ratio to NP16 based on inhibition ratio” value is 0.28.

As for `O=C(/C=C/c1ccc(Br)cc1)Nc1ccc(S(=O)(=O)N2CCCCC2)cc1` [NP16-XL-014, 3-(4-bromophenyl)-N-[4-(1-piperidine-1-sulfonyl)phenyl]-acrylamide], the “Relative ratio to NP16 based on inhibition ratio” value is given as 0.74.

As to `O=C(/C=C/c1cccc(Br)c1)Nc1ccc(S(=O)(=O)N2CCCCC2)cc1` [NP16-XL-015, 3-(5-bromophenyl)-N-[4-(1-piperidine-1-sulfonyl)phenyl]-acrylamide], the “Relative ratio to NP16 based on inhibition ratio” value turned out to be 1.18.

Consider `Cc1ccc(/C=C/C(=O)Nc2ccc(S(=O)(=O)N3CCCCC3)cc2)cc1` [NP16-XL-017, 3-(4-methylphenyl)-N-[4-(1-piperidine-1-sulfonyl)phenyl]-acrylamide], for which the “Relative ratio to NP16 based on inhibition ratio” value was determined as 0.09.

With `Cc1ccccc1/C=C/C(=O)Nc1ccc(S(=O)(=O)N2CCCCC2)cc1` [NP16-XL-018, 3-(6-methylphenyl)-N-[4-(1-piperidine-1-sulfonyl)phenyl]-acrylamide], the “Relative ratio to NP16 based on inhibition ratio” value is recorded as 2.48.

Take `O=C(/C=C/c1ccc(Br)cc1)Nc1ccc(S(=O)(=O)N2CCCc3ccccc32)cc1` [NP16-XL-029, 3-(4-bromophenyl)-N-[4-(1,2,3,4--tetra-hydroquinoline-1-sulfonyl)phenyl]-acrylamide]: the “Relative ratio to NP16 based on inhibition ratio” value is given as 0.53.

For the compound `O=C(/C=C/c1ccccc1)Nc1ccc(S(=O)(=O)N2CCCc3ccccc32)cc1` [NP16-XL-030, 3-phenyl-N-[4-(1,2,3,4--tetra-hydroquinoline-1-sulfonyl)phenyl]-acrylamide], the “Relative ratio to NP16 based on inhibition ratio” value was 1.26.

As for `O=C(/C=C/c1ccc(Br)cc1)Nc1ccc(S(=O)(=O)N2CCc3ccccc3C2)cc1` [NP16-XL-031, 3-(4-bromophenyl)-N-[4-(3,4-dihydro-1H-isoquinoline-2-sulfonyl)phenyl]-acrylamide], the “Relative ratio to NP16 based on inhibition ratio” value is listed as 0.23.

Consider `O=C(/C=C/c1ccccc1)Nc1ccc(S(=O)(=O)N2CCc3ccccc3C2)cc1` [NP16-XL-032, 3-phenyl-N-[4-(3,4-dihydro-1H-isoquinoline-2-sulfonyl)phenyl]-acrylamide], for which the “Relative ratio to NP16 based on inhibition ratio” value is recorded as 1.17.

In the case of `O=C(/C=C/c1ccccc1)Nc1ccc(S(=O)(=O)N(C(=O)/C=C/c2ccccc2)c2ccccc2)cc1` [NP16-XL-036, 3-phenyl-N-{[4-(N-phenyl-3-phenylprop-2-enamido)sulfonyl]-phenyl}-acrylamide], the “Relative ratio to NP16 based on inhibition ratio” value came to 3.04.

`O=C(/C=C/c1ccccc1)Nc1ccc(S(=O)(=O)Nc2ccccc2)cc1` [NP16-XL-037, 3-phenyl-N-[(4-phenylsulfamoyl)-phenyl]acrylamide]: the “Relative ratio to NP16 based on inhibition ratio” value is on record as 3.02.

For `O=C(/C=C/c1ccccc1Br)Nc1ccc(S(=O)(=O)Nc2ccccc2)cc1` [NP16-XL-038, 3-(6-bromophenyl)-N-[(4-phenylsul-famoyl)phenyl]-acrylamide], the “Relative ratio to NP16 based on inhibition ratio” value turned out to be 3.23.

Regarding `O=C(/C=C/c1ccccc1Br)Nc1ccc(S(=O)(=O)N(C(=O)/C=C/c2ccccc2Br)c2ccccc2)cc1` [NP16-XL-039, 3-(6-bromophenyl)-N-{[4-(N-phenyl-3-6-bromophenyl-prop-2-enamido)-sulfonyl]phenyl}-acrylamide], the “Relative ratio to NP16 based on inhibition ratio” value came out at 3.23.

Turning to `O=C(/C=C/c1c(F)cccc1F)Nc1ccc(S(=O)(=O)Nc2ccccc2)cc1` [NP16-XL-040, 3-(2,6-difluoro-phenyl)-N-[(4-phenylsulfamoyl)-phenyl]acrylamide], the “Relative ratio to NP16 based on inhibition ratio” value was 2.51.

Consider `O=C(/C=C/c1ccccc1F)Nc1ccc(S(=O)(=O)Nc2ccccc2)cc1` [NP16-XL-041, 3-(6-fluorophenyl)-N-[(4-phenyl-sulfamoyl)phenyl]-acrylamide], for which the “Relative ratio to NP16 based on inhibition ratio” value was found to be 3.17.

As for `O=C(/C=C/c1cccnc1)Nc1ccc(S(=O)(=O)Nc2ccccc2)cc1` [NP16-XL-042, 3-(pyridin-3-yl)-N-[(4-phenyl-sulfamoyl)phenyl]-acrylamide], the “Relative ratio to NP16 based on inhibition ratio” value is reported as 1.44.

Regarding `N#Cc1ccccc1/C=C/C(=O)Nc1ccc(S(=O)(=O)Nc2ccccc2)cc1` [NP16-XL-043, 3-(6-cyanophenyl)-N-[(4-phenyl-sulfamoyl)phenyl]-acrylamide], the “Relative ratio to NP16 based on inhibition ratio” value is reported as 3.23.

Consider `O=C(/C=C/c1ccccn1)Nc1ccc(S(=O)(=O)Nc2ccccc2)cc1` [NP16-XL-044, 3-(pyridin-2-yl)-N-[(4-phenyl-sulfamoyl)phenyl]-acrylamide], for which the “Relative ratio to NP16 based on inhibition ratio” value amounted to 2.47.

Take `O=C(/C=C/c1c(F)cccc1F)Nc1ccc(S(=O)(=O)N2CCCCC2)cc1` [NP16-XL-045, 3-(2,6-difluoro-phenyl)-N-[4-(1-piperidine-1-sulfonyl)phenyl]-acrylamide]: the “Relative ratio to NP16 based on inhibition ratio” value is 0.88.

`N#Cc1ccccc1/C=C/C(=O)Nc1ccc(S(=O)(=O)N2CCCCC2)cc1` [NP16-XL-047, 3-(6-cyanophenyl)-N-[4-(1-piperidine-1-sulfonyl)phenyl]-acrylamide]: the “Relative ratio to NP16 based on inhibition ratio” value was 3.18.

For the compound `O=C(/C=C/c1ccccc1Br)Nc1ccc(C(=O)Nc2ccccc2)cc1` [NP16-XL-048, 3-(6-bromphenyl)-N-[(4-phenylamine-carbonyl)phenyl]-acrylamide], the “Relative ratio to NP16 based on inhibition ratio” value is on record as 0.23.

Regarding `N#Cc1ccccc1/C=C/C(=O)Nc1ccc(C(=O)Nc2ccccc2)cc1` [NP16-XL-049, 3-(6-cyanophenyl)-N-[(4-phenylamine-carbonyl)phenyl]-acryiamide], the “Relative ratio to NP16 based on inhibition ratio” value turned out to be 0.21.

On to `CN1CCN(S(=O)(=O)c2ccc(NC(=O)/C=C/c3ccccc3Br)cc2)CC1` [NP16-XL-052, 3-(6-bromophenyl)-N-[4-(4-methyl-1,4-piperazine-1-sulfonyl)phenyl]-acrylamide], for which the “Relative ratio to NP16 based on inhibition ratio” value was 3.18.

Regarding `CN1CCN(S(=O)(=O)c2ccc(NC(=O)/C=C/c3c(F)cccc3F)cc2)CC1` [NP16-XL-053, 3-(2,6-difluoro-phenyl)-N-[4-(4-methyl-1,4-piperazine-1-sulfonyl)phenyl]-acrylamide], the “Relative ratio to NP16 based on inhibition ratio” value is reported as 1.26.

`CN1CCN(S(=O)(=O)c2ccc(NC(=O)/C=C/c3ccccc3F)cc2)CC1` [NP16-XL-054, 3-(6-fluorophenyl)-N-[4-(4-methyl-1,4-piperazine-1-sulfonyl)phenyl]-acrylamide]: the “Relative ratio to NP16 based on inhibition ratio” value amounted to 2.86.

With `CN1CCN(S(=O)(=O)c2ccc(NC(=O)/C=C/c3ccccc3C#N)cc2)CC1` [NP16-XL-055, 3-(6-cyanophenyl)-N-[4-(4-methyl-1,4-piperazine-1-sulfonyl)phenyl]-acrylamide], the “Relative ratio to NP16 based on inhibition ratio” value stood at 3.19.

With `O=C(Nc1ccc(S(=O)(=O)N2CCCCC2)cc1)c1ncoc1-c1ccccc1` [NP16-XL-057, 4-(5-phenyl-1,3-oxazole)-N-[4-(1-piperidine-1-sulfonyl)phenyl]-amide], the “Relative ratio to NP16 based on inhibition ratio” value is 0.14.

For the compound `O=C(/C=C/c1c(Br)cccc1Br)Nc1ccc(S(=O)(=O)N2CCCCC2)cc1` [NP16-XL-058, 3-(2,6-dibromo-phenyl)-N-[4-(1-piperidine-1-sulfonyl)phenyl]-acrylamide], the “Relative ratio to NP16 based on inhibition ratio” value was 0.16.

`N#Cc1ccc(-c2cc(C(=O)Nc3ccc(S(=O)(=O)N4CCCCC4)cc3)no2)cc1` [NP16-XL-059, 4-[2-(4-cyano-phenyl)-1,5-oxazole]-N-[4-(1-piperidine-1-sulfonyl)phenyl]-amide]: the “Relative ratio to NP16 based on inhibition ratio” value came out at 0.06.

As to `O=C(Nc1ccc(S(=O)(=O)N2CCCCC2)cc1)c1cc(-c2cccs2)on1` [NP16-XL-060, 4-[2-(thiophen-5-yl)-1,5-oxazole]-N-[4-(1-piperidine-1-sulfonyl)phenyl]-amide], the “Relative ratio to NP16 based on inhibition ratio” value turned out to be 0.06.
